Experimental findings from patent US9212175B2, “Pharmaceutical hypocholesterolemic compositions” (Lipideon Biotechnology AG, priority 2009, dated 2015) are described below.

Data set [1] is described as follows: Determination of absorption: unidirectional permeability assay (Cloe Screen, Cyprotex). In kind it is in vitro ADME. The note with it: human, Caco-2, apical side, cell monolayer, read-out: Papp in cm · s^−1. The method, then: It has further been shown that the compounds of the invention display the desired pharmacological activity by evaluation of their potency in vivo (in mice and hamsters). The bioavailability of the compounds of the present invention has been determined by unidirectional Caco2 Permeability measurement.
Determination of Absorption
The permeability of the compounds of the present invention was determined using the Cloe Screen® (unidirectional Cloe Screen […] permeability assay; Cyprotex) and is expressed by Papp (cm·s^−1). Caco-2 cells are widely used as an in vitro model for predicting human drug absorption. The Caco-2 cell line is derived from a human colorectal carcinoma, and when cultured, the cells spontaneously differentiate into monolayers of polarised enterocytes. The cells are typically seeded on Transwell™ plates and form a confluent monolayer over 20 days prior to the experiment. On day 20, the test compound is added to the apical side of the membrane and the transport of the compound across the monolayer is monitored over a 2 hour time period. The permeability coefficient (Papp) is calculated from the equation: Papp=(dQ/dt)/(C0xA), where (dQ/dt) is the rate of permeation of the drug across the cells, C0 is the donor compartment concentration at time zero and A is the area of the cell monolayer.
On the technique in general: Caco-2 cells form a polarised layer with tight junctions and transporters.

The next data set has as its system Syrian Golden Hamsters. As to the kind of experiment: Long-term LDL lowering in Syrian Golden hamsters. The format is in vivo. The note with it: hamsters on high fat diet, dose 3 × 1 mg/kg/day, day 14, relative to vehicle control. How it is done:
Long-Term LDL Lowering in Syrian Golden Hamsters
Groups of 6 male hamsters weighing 90±10 g are fed a high fat diet (g/100 g: corn oil, 5; coconut oil, 5; cholesterol, 0.2; standard chow, 89.8) for 7 days. Afterwards vehicle or test compounds (3-10 mg/kg bw/day) in a solution of 0.5% Methylcellulose, 5% Solutol or another suitable vehicle are administered at least three times daily for 14 consecutive days. Following an overnight fasting period, blood serum is obtained from the retro-orbital sinus of each animal on day 0 (7 days after initiating of the high fat diet) and on days 8 and 15 after dosing for 7 and 14 days. The serum is assayed for total cholesterol, LDL-cholesterol, HDL-cholesterol and triglycerides. The percent change of treated relative to the vehicle control group is determined.

The subject of the next data set is C56BL/6 mice. As to the kind of experiment: Acute cholesterol absorption inhibition assay in mice. The note with it: [3H]-cholesterol counts in plasma 2 h after cholesterol, relative to vehicle control. The format is in vivo. The method, then:
Accute Cholesterol Absorption Inhibition Assay in Mice
Compounds were added to a solution of 0.5% Methylcellulose (Sigma)/5% Solutol, BASF) or another suitable vehicle at a concentration of 0.1-1 mg/ml. C56BL/6 mice (n=3-6/group), aged 6-8 weeks were dosed orally with 0.1 ml of vehicle or 0.1 mL of vehicle containing the test compound (0.5-5 mg/kg) or ezetimibe (10 mg/kg) as positive control. Thirty minutes later all of the mice were dosed orally with 0.1 mL corn oil containing 2 μCi [^3H]-cholesterol per mouse. Two hours after administration of radiolabeled cholesterol, the animals were euthanized and blood collected. Cholesterol counts in plasma were determined, and percent inhibition of cholesterol absorption was calculated relative to the vehicle control.

In the case of `O=C(COC1(CCc2ccc([C@@H]3[C@@H](CC[C@H](O)c4ccc(F)cc4)C(=O)N3c3ccc(F)cc3)cc2)COC1)NC1(C(=O)O)CCC1` [Example 35, 1-(2-(3-(4-((2S,3R)-1-(4-fluorophenyl)-3-((S)-3-(4-fluorophenyl)-3-hydroxypropyl)-4-oxoazetidin-2-yl)phenethyl)oxetan-3-yloxy)acetamido)cyclobutanecarboxylic acid], the Papp A→B at 2 h in data set [1] stood at 0.73 ×10⁻⁶ cm/s. Further, the “LDL reduction @ day 14 (%)” value in the data set on Syrian Golden Hamsters is recorded as 80%.
As to `CC(C)[C@@H](NC(=O)COC1(CCc2ccc([C@@H]3[C@@H](CC[C@H](O)c4ccc(F)cc4)C(=O)N3c3ccc(F)cc3)cc2)COC1)C(=O)O` [Example 39, (R)-2-(2-(3-(4-((2S,3R)-1-(4-fluorophenyl)-3-((S)-3-(4-fluorophenyl)-3-hydroxypropyl)-4-oxoazetidin-2-yl)phenethyl)oxetan-3-yloxy)acetamido)-3-methylbutanoic acid], the “Cholesterol Absorption Inhibition (%)” value in the data set with C56BL/6 mice (oral dose 1 mg/kg) came to 82%. Besides, in data set [1], the Papp A→B at 2 h worked out at 0.92 ×10⁻⁶ cm/s. Moreover, the “LDL reduction @ day 14 (%)” value with Syrian Golden Hamsters is on record as 74%.
Consider `O=C(O)COC1(CCc2ccc([C@@H]3[C@@H](CC[C@H](O)c4ccc(F)cc4)C(=O)N3c3ccc(F)cc3)cc2)COC1` [Example 1, 2-(3-(4-((2S,3R)-1-(4-fluorophenyl)-3-((S)-3-(4-fluorophenyl)-3-hydroxypropyl)-4-oxoazetidin-2-yl)phenethyl)oxetan-3-yloxy)acetic acid], for which the “Cholesterol Absorption Inhibition (%)” value in the data set on C56BL/6 mice (oral dose 1 mg/kg) is on record as 87%. For the same molecule, the Papp A→B at 2 h in data set [1] turned out to be 1.68 ×10⁻⁶ cm/s.
In the case of `O=C(COC1(CCc2ccc([C@@H]3[C@@H](CC[C@H](O)c4ccc(F)cc4)C(=O)N3c3ccc(F)cc3)cc2)COC1)NCCS(=O)(=O)O` [Example 28, 2-(2-(3-(4-((2S,3R)-1-(4-fluorophenyl)-3-((S)-3-(4-fluorophenyl)-3-hydroxypropyl)-4-oxoazetidin-2-yl)phenethyl)oxetan-3-yloxy)acetamido)ethanesulfonic acid], the “Cholesterol Absorption Inhibition (%)” value in the data set with C56BL/6 mice (oral dose 1 mg/kg) amounted to 63%.
On the same count and under the same terms, then `O=C(O)[C@@H]1CCCN1C(=O)COC1(CCc2ccc([C@@H]3[C@@H](CC[C@H](O)c4ccc(F)cc4)C(=O)N3c3ccc(F)cc3)cc2)COC1` [Example 20, (S)-1-(2-(3-(4-((2S,3R)-1-(4-fluorophenyl)-3-((S)-3-(4-fluorophenyl)-3-hydroxypropyl)-4-oxoazetidin-2-yl)phenethyl)oxetan-3-yloxy)acetyl)pyrrolidine-2-carboxylic acid], with 42%.
As to `O=C(COC1(CCc2ccc([C@@H]3[C@@H](CC[C@H](O)c4ccc(F)cc4)C(=O)N3c3ccc(F)cc3)cc2)COC1)NC(CO)(CO)CO` [Example 46, N-(1,3-dihydroxy-2-(hydroxymethyl)propan-2-yl)-2-(3-(4-((2S,3R)-1-(4-fluorophenyl)-3-((S)-3-(4-fluorophenyl)-3-hydroxypropyl)-4-oxoazetidin-2-yl)phenethyl)oxetan-3-yloxy)acetamide], the Papp A→B at 2 h in data set [1] is 1.09 ×10⁻⁶ cm/s. Besides, in the data set on Syrian Golden Hamsters, the “LDL reduction @ day 14 (%)” value is 67%.
`O=C(O)C1CCCCN1C(=O)COC1(CCc2ccc([C@@H]3[C@@H](CC[C@H](O)c4ccc(F)cc4)C(=O)N3c3ccc(F)cc3)cc2)COC1` (stereo partly drawn) [Example 23, 1-(2-(3-(4-((2S,3R)-1-(4-fluorophenyl)-3-((S)-3-(4-fluorophenyl)-3-hydroxypropyl)-4-oxoazetidin-2-yl)phenethyl)oxetan-3-yloxy)acetyl)piperidine-2-carboxylic acid]: the “Cholesterol Absorption Inhibition (%)” value with C56BL/6 mice (oral dose 1 mg/kg) was determined as 73%.
As for `NC(=O)[C@H]1CCCN1C(=O)COC1(CCc2ccc([C@@H]3[C@@H](CC[C@H](O)c4ccc(F)cc4)C(=O)N3c3ccc(F)cc3)cc2)COC1` [Example 22, (R)-1-(2-(3-(4-((2S,3R)-1-(4-fluorophenyl)-3-((S)-3-(4-fluorophenyl)-3-hydroxypropyl)-4-oxoazetidin-2-yl)phenethyl)oxetan-3-yloxy)acetyl)pyrrolidine-2-carboxamide], in the data set on C56BL/6 mice (oral dose 1 mg/kg), the “Cholesterol Absorption Inhibition (%)” value was 80%.
`O=C(O)[C@H]1CCCN1C(=O)COC1(CCc2ccc([C@@H]3[C@@H](CC[C@H](O)c4ccc(F)cc4)C(=O)N3c3ccc(F)cc3)cc2)COC1` [Example 19, (R)-1-(2-(3-(4-((2S,3R)-1-(4-fluorophenyl)-3-((S)-3-(4-fluorophenyl)-3-hydroxypropyl)-4-oxoazetidin-2-yl)phenethyl)oxetan-3-yloxy)acetyl)pyrrolidine-2-carboxylic acid]: the “Cholesterol Absorption Inhibition (%)” value in the data set on C56BL/6 mice (oral dose 1 mg/kg) is on record as 83%. In addition, the Papp A→B at 2 h in data set [1] is 0.14 ×10⁻⁶ cm/s.
Take `O=C(COC1(CCc2ccc([C@@H]3[C@@H](CC[C@H](O)c4ccc(F)cc4)C(=O)N3c3ccc(F)cc3)cc2)COC1)N[C@H](CO)C(=O)O` [Example 34, (R)-2-(2-(3-(4-((2S,3R)-1-(4-fluorophenyl)-3-((S)-3-(4-fluorophenyl)-3-hydroxypropyl)-4-oxoazetidin-2-yl)phenethyl)oxetan-3-yloxy)acetamido)-3-hydroxypropanoic acid]: in data set [1], the Papp A→B at 2 h is 0.57 ×10⁻⁶ cm/s. Moreover, the “LDL reduction @ day 14 (%)” value in the data set on Syrian Golden Hamsters worked out at 76%.
`O=C1[C@H](CC[C@H](O)c2ccc(F)cc2)[C@@H](c2ccc(O)cc2)N1c1ccc(F)cc1` [Ezetimibe, reference compound]: the “Cholesterol Absorption Inhibition (%)” value with C56BL/6 mice (oral dose 10 mg/kg (positive control)) was 87%. The Papp A→B at 2 h in data set [1] was 46 ×10⁻⁶ cm/s.
